For data set [1], the target named is T1, Protein mono-ADP-ribosyltransferase TIPARP (Homo sapiens, UniProt Q7Z3E1).
T1 sequence (Q7Z3E1 whole entry): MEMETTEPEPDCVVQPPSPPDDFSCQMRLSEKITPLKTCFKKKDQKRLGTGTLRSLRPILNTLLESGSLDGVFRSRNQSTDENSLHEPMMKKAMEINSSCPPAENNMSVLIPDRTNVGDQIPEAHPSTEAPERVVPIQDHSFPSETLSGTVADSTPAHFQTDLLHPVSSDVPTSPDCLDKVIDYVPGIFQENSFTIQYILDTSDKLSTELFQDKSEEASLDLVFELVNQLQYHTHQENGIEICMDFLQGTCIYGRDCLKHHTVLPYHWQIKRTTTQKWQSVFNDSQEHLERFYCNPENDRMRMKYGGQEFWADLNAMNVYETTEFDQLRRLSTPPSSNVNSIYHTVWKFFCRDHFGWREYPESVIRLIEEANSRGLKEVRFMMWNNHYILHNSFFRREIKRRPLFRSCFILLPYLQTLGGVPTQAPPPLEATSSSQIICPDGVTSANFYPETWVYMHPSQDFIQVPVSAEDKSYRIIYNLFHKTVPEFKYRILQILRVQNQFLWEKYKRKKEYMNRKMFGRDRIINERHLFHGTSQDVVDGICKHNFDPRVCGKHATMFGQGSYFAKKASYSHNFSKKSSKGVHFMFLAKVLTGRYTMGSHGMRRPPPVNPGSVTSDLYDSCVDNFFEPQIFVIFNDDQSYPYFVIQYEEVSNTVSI
Briefly: Inhibition of PARP7 (unknown origin) by HTRF assay.

The nature of data set [2]: Oral bioavailability in mouse at 100 mg/kg administered as single dose. The settings on record: in vivo. It is filed as ADME, organism-based.

The values below come from ChEMBL document CHEMBL5126675, “Recent Discovery of PARP7 Inhibitors as Anticancer Agents” (ACS Med Chem Lett, 2022).

Molecules are shown by their SMILES.

For the compound `C[C@@H](COCCC(=O)N1CCN2c3ncc(Cl)cc3OCC[C@@H]2C1)Oc1cn[nH]c(=O)c1C(F)(F)F`, the IC50 in data set [1] was 1.01 nM. Also, the bioavailability in data set [2] was found to be 106%.

As to `C[C@@H](COCCC(=O)N1CCN2c3ncc(C(F)(F)F)cc3OC[C@@H]2C1)Oc1cn[nH]c(=O)c1C(F)(F)F`, the IC50 in data set [1] came out at 1.24 nM. Besides, the bioavailability in data set [2] came out at 121%.
